Reference: BindingDB's records for PubMed 3139864 (Vanderbilt University, 1988)

Target: T1, 5-hydroxytryptamine receptor 2C (Rattus norvegicus, UniProt P08909)
T1 sequence (P08909 whole entry): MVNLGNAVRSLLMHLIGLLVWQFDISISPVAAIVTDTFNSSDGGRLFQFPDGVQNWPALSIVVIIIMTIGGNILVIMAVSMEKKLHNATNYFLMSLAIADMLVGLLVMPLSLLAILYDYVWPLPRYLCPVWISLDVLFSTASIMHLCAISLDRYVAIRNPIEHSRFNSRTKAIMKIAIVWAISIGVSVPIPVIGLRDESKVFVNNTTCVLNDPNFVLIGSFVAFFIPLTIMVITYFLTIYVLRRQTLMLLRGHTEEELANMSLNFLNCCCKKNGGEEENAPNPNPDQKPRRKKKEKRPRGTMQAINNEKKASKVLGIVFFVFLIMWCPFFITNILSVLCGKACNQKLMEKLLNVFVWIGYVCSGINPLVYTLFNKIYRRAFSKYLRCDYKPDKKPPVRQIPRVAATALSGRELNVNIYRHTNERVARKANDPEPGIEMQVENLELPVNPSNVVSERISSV

| Ki [nM] | Compound |
| --- | --- |
| > 10000 | CC1(C)CC(=O)N(CCCCN2CCN(c3ncccn3)CC2)C(=O)C1 [4,4-Dimethyl-1-[4-(4-pyrimidin-2-yl-piperazin-1-yl)-butyl]-piperidine-2,6-dione] |
| 30 | O=C(c1ccc(F)cc1)C1CCN(CCn2c(=O)[nH]c3ccccc3c2=O)CC1 [3-(2-{4-[(4-fluorophenyl)carbonyl]piperidin-1-yl}ethyl)-1,2,3,4-tetrahydroquinazoline-2,4-dione] |
| 3120 | CN(C)CCC(c1ccc(Cl)cc1)c1ccccn1 (centres undefined) [clorfeniramina] |
| 100 | CN(C)CCCN1c2ccccc2CCc2ccccc21 |
